System: cultured rat pituitary cells
Assay: in vitro inhibition of growth hormone secretion by cultured rat pituitary cells (radioimmunoassay)
Assay type: cell-based
Conditions: three hours at 37° C in Eagles medium, control 441±12
Protocol: The activity of the undecapeptide of this invention was established in both in vitro and in vivo testing procedures, employing modifications of the techniques disclosed by Penso et al., Tissue Culture in Biological Research, Elsevier, 1963, p. 98; Berson et al., Metabolism, 13, 1135(1964).
The in vitro tests were conducted by covering cultured rat pituitary cells contained in petri dishes with five milliliter portions of the undecapeptide, as its diacetate salt, in Eagles medium for three hours at 37° C. Three Petri dishes were employed for each solution concentration. The amount of growth hormone produced by the cultured pituitary cells is then compared with growth hormone produced by non-treated cells prepared in identical manner, via growth hormone radioimmunoassay. The difference between the growth hormone produced by treated and non-treated pituitary cells establishes the amount of inhibition by the compound under study.
The cultured pituitary cells are prepared by excising and mincing rat pituitary glands followed by enzymatic separation of the cells (collagenase and hyaluronidase) and culture on synthetic nutrient media. When the cells attach themselves to the bottom of the plastic petri dish and cover the nutrient surface, they are washed with Eagles medium containing only inorganic salts, glucose and antibiotics in which state they are ready for use as above described.
The activity of the undecapeptide of this invention was compared in vitro with somatostatin with the following results in which the concentration valves given are in nanograms/milliliter: […]

## C[C@H](N)C(=O)NCC(=O)N[C@H]1CSSC[C@@H](C(=O)O)NC(=O)[C@H](CO)NC(=O)[C@H]([C@@H](C)O)NC(=O)[C@H](Cc2ccccc2)NC(=O)[C@H]([C@@H](C)O)NC(=O)[C@H](CCCCN)NC(=O)[C@H](Cc2c[nH]c3ccccc23)NC(=O)[C@H](Cc2ccccc2)NC(=O)[C@H](Cc2ccccc2)NC(=O)[C@H](CC(N)=O)NC(=O)[C@H](CCCCN)NC1=O [somatostatin]
Compound concentration 10 ng/ml
  Growth Hormone Secreted: 260 ± 8 ng/mL
Compound concentration 50 ng/ml
  Growth Hormone Secreted: 271 ± 22 ng/mL
Compound concentration 100 ng/ml
  Growth Hormone Secreted: 250 ± 13 ng/mL

— patent US4113714A, “[Des-Ala^1, Gly^2 -desamino-Cys^3 ]somatostatin” (American Home Products Corporation, priority 1975, dated 1978)
